Laboratory results reported in patent US10966999B2, “3′3′ cyclic dinucleotides with phosphonate bond activating the sting adaptor protein” (INSTITUTE OF ORGANIC CHEMISTRY AND BIOCHEMISTRY ASCR, V.V.I., priority 2017, dated 2021).

Key:
[1] = target: T1, WT STING (Homo sapiens, UniProt Q86WV6, H232R); assay: Differential Scanning Fluorimetry (DSF) with WT STING; type: binding; conditions: thermal shift vs STING apoprotein; 150 μM CDN; 0.1 mg/ml protein; SYPRO Orange
T1 construct: encoded truncated human WT STING or AQ STING (amino acid residues 140-343) with N-terminal 8×His and SUMO tag; 8xHis-SUMO (N, cleaved yes); made in house; host or cells: E. coli Rosetta-gami B (DE3)
Method: (§1) WT STING and AQ STING Proteins
(§2) Purified PCR products were cleaved with restriction enzymes BamHI (cat. #R0136S, NEB, Ipswich, USA) and NotI (cat. #R0189S, NEB, Ipswich, USA) and cloned into the pSUMO vector linearized with the identical enzymes.
(§3) DNase I (cat. #D5025, Sigma Aldrich, Czech Republic) and RNase A (cat. #R6513, Sigma Aldrich, Czech Republic) were added (final concentration 50 μg/ml) together with MgCl2 (final concentration 5 mmol·l^−1) to the homogenate and bacteria were lysed using French Press G-M™ High-Pressure Cell Press Homogenizer (1500 psi, 3 cycles). […] The resin was poured into a chromatography column, washed with 50 ml buffer A (50 mmol·l^−1 TrisCl (pH 8.0), 800 mmol·l^−1 NaCl, 3 mmol·l^−1 3-mercaptol; 10% glycerol; 20 mmol·l^−1 imidazole) and 8-His-SUMO tagged STING proteins were eluted with 15 ml buffer A containing 300 mmol·l^−1 imidazole. […] Proteins were concentrated with Amicon® Ultra-15 10 K device (cat. #UFC901008, Merck Millipore, Billerica, USA) and flash frozen in liquid N2.
(§4) Differential Scanning Fluorimetry (DSF) with WT STING and AQ STING
(§5) 20 μL solutions of the reaction mixtures were pipetted in triplicates into 96 well optical reaction plates and thermal denaturation of samples were performed on real time PCR cycler (LightCycler R 480 Instrument II—Roche, Basel, Switzerland). The first derivative of the thermal denaturation curves was performed to calculate denaturing temperatures of STING-CDN complexes and STING apoproteins. The thermal shift for each CDN was calculated by subtracting the average denaturing temperature of STING apoprotein from the average denaturing temperature of STING CDN complex.

[2] = target: T2, AQ STING (G230A-R293Q) (Homo sapiens, UniProt Q86WV6, G230A/H232R/R293Q); assay: Differential Scanning Fluorimetry (DSF) with AQ STING; type: binding; conditions: thermal shift vs STING apoprotein; 150 μM CDN; 0.1 mg/ml protein; SYPRO Orange
T2 construct: encoded truncated human WT STING or AQ STING (amino acid residues 140-343) with N-terminal 8×His and SUMO tag; 8xHis-SUMO (N, cleaved yes); made in house; host or cells: E. coli Rosetta-gami B (DE3)
Method: as §1, §2, §3, §4, §5

[3] = target: T3, human wild type STING (WT STING) (Homo sapiens, UniProt Q86WV6, H232R); assay: Digitonin assay using 293T wtSTING-FL reporter cells; type: cell-based; conditions: 293T wtSTING-FL cells; ISRE firefly luciferase reporter; 30 min in Digitonin buffer, then 5 hours; 8-point dose-response curve
T3 construct: host or cells: 293T (ATCC CRL-3216), stably transfected, with a 4xISRE firefly luciferase reporter
From the text: ISRE Reporter Plasmid (pGL64.27-4×ISRE)
Two complementary oligonucleotides of the sequence […] […] […] […] […] The oligonucleotides were mixed in equal molar amounts, hybridized, and cleaved by restriction endonucleases HindIII (cat. #. R0104S, NEB, Ipswich, USA) and BglII (cat. #R0144S, NEB, Ipswich, USA). Ultimately, they were ligated into plasmid pGL4.27 (cat. #E6651, Promega, Madison, USA) linearized with the same enzymes. As result the sequence with four ISRE sites was placed upstream of the minimum promoter of firefly luciferase reporter gene.
After 5 minutes incubation at room temperature (RT), 250 μL of the mixture was added dropwise to the cells in one well. Cells were incubated 36 hours at 37° C. with 5% CO2, and then detached with 0.05% Trypsin and 0.22 g/L EDTA (both cat. #L0941, Biowest, Riverside, USA).
Transfected cells were seeded onto poly-D-lysine coated six well plates at density 50,000 cells per 1 cm^2 in DMEM medium with high glucose containing 10% heat inactivated FBS, 30 μg/mL blasticidin (cat. #ant-bl-05, InvivoGen, San Diego, USA), 0.06 mg/ml Penicillin G and 0.1 mg/ml Streptomycin Sulfate (both cat. #. L0018, Biowest, Riverside, USA). The medium was replenished every 3-4 days until visible colonies of cells resistant to blasticidin were formed.
Blasticidin resistant cells stably expressing WT STING were further transfected with pGL64.27-4×ISRE plasmid following the same procedure as described above. […] Homogeneous culture of stably double transfected cells was prepared by limiting dilution of cells in 96 well plates and wells with cells were selected that originated from a single cell.
The medium was removed next day and three fold serial dilutions of compounds in Digitonin buffer containing 50 mmol·l^−1 HEPES (cat. #H3375, Sigma Aldrich, Czech Republic) pH 7.0, 100 mmol·l^−1 KCl, 3 mmol·l^−1 MgCl2, 0.1 mmol·l^−1 DTT (cat. #D0632, Sigma Aldrich, Czech Republic), 85 mmol·l^−1 Sucrose (cat. #S7903, Sigma Aldrich, Czech Republic), 0.2% BSA (cat. #A2153, Sigma Aldrich, Czech Republic), 1 mmol·l^−1 ATP (cat. #A1852, Sigma Aldrich, Czech Republic), 0.1 mmol·l^−1 GTP (cat. #G8877, Sigma Aldrich, Czech Republic), and 10 μg/mL Digitonin A (cat. #D141, Sigma Aldrich, Czech Republic) were added to the cells. The buffer was removed after 30 minutes incubation at 37° C. with 5% CO2, the cells were washed once with 100 μl of cultivation medium, and 100 μl of medium was added to each well. The plates with cells were incubated for 5 hours at 37° C. with 5% CO2, 50 μl of the medium was removed and 30 μl of ONE-Glo™ Luciferase Assay System reagent (cat. #E6120, Promega, Madison, USA) was added to each well. Luminescence was read on Synergy H1 (Biotek, Winooski, USA).

T1 sequence (Q86WV6 140-343 H232R): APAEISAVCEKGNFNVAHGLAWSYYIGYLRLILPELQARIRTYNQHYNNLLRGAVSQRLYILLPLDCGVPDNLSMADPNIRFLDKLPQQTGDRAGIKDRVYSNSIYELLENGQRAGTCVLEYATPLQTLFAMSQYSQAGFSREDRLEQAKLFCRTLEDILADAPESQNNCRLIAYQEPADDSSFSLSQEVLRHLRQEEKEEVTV
T3 sequence (Q86WV6 whole entry H232R): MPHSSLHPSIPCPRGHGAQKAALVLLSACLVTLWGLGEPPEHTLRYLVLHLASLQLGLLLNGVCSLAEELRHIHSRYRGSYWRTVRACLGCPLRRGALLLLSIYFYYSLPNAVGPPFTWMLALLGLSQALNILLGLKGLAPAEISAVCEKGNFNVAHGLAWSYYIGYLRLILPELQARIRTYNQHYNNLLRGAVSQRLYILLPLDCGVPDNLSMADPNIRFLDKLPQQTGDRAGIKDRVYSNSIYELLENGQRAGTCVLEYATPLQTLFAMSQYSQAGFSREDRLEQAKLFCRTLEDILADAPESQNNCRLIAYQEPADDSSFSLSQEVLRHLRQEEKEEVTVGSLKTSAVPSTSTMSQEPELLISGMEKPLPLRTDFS
T2 sequence (Q86WV6 140-343 G230A/H232R/R293Q): as the sequence (Q86WV6 140-343 H232R) above, with G91A, R154Q counted along it

Molecule | ΔTm at 150 µM [1] [°C] | ΔTm at 150 µM [2] [°C] | EC50 [3] [µM] | DSF ΔTm WT STING [1] [°C] | DSF ΔTm AQ STING [2] [°C]
Nc1nc2c(ncn2[C@@H]2O[C@@H]3OCP(=O)(O)OC4C(O)[C@H](n5cnc6c(N)ncnc65)O[C@@H]4OCP(=O)(O)OC3C2O)c(=O)[nH]1 (stereo partly drawn) [Compound 38] | 1.9 | 9.5 | 0.2 | – | –
Nc1ncc2ncn([C@@H]3O[C@@H]4COP(=O)(O)OC5C(O)[C@H](n6cnc7c(N)ncnc76)O[C@@H]5OCP(=O)(O)OC4C3O)c2n1 (stereo partly drawn) [Compound 42] | 0.7 | 6.6 | 0.6 | – | –
Nc1ncnc2c1ncn2[C@@H]1O[C@@H]2COP(=O)(O)O[C@H]3[C@@H](O)[C@H](n4cnc5c(N)ncnc54)O[C@@H]3COP(=O)(O)O[C@H]2[C@H]1O [3′3′c-di-AMP, 3′3′-c-di-AMP, reference compound] | – | – | 0.3 | 2.6 | 9.3
COc1nc(N)nc2c1ncn2[C@@H]1O[C@@H]2COP(=O)(O)OC3C(O)[C@H](n4cnc5c(N)ncnc54)O[C@@H]3OCP(=O)(O)OC2C1O (stereo partly drawn) [Compound 41] | 0.1 | 1.6 | 17.6 | – | –
Nc1nc(Cl)c2ncn([C@@H]3O[C@@H]4COP(=O)(O)OC5C(O)[C@H](n6cnc7c(N)ncnc76)O[C@@H]5OCP(=O)(O)OC4C3O)c2n1 (stereo partly drawn) [Compound 40] | 0.4 | 2.1 | 7.5 | – | –
Nc1nc2c(ncn2[C@@H]2O[C@@H]3COP(=O)(O)O[C@@H]4[C@H](O)[C@@H](COP(=O)(O)O[C@@H]2[C@@H]3O)O[C@H]4n2cnc3c(N)ncnc32)c(=O)[nH]1 [2′2′-cGAMP, reference compound] | – | – | 0.03 | 11.5 | 19.4
(2R,3R,3aS,7aR,9R,10R,10aR,14aR)-2,9-bis(6-amino-9H-purin-9-yl)-10-fluoro-3,5,12-trihydroxydecahydrodifuro[3,2-d:3′,2′-i][1,3,6,9]tetraoxa[2,8]diphosphacyclododecine 5,12-dioxide [Compound 33] | – | – | 0.11 | 5.7 | 12.0
Nc1ncnc2c1ncn2[C@@H]1O[C@@H]2COCP(=O)(O)OC3C(F)[C@H](n4cnc5c(N)ncnc54)O[C@@H]3COP(=O)(O)OC2C1O (stereo partly drawn) [Compound 34, (2R,3R,3aS,7aR,9R,10R,10aR,15aR)-2,9-bis(6-amino-9H-purin-9-yl)-10-fluoro-3,5,12-trihydroxydecahydro-2H-difuro[2,3-e:2′,3′-1][1,3,7,10]tetraoxa[2,8]diphosphacyclotridecine 5,12-dioxide] | 0.2 | 4.3 | 19.6 | – | –
CNc1ncnc2c1ncn2[C@@H]1O[C@@H]2COP(=O)(O)OC3C(O)[C@H](n4cnc5c(=O)[nH]c(N)nc54)O[C@@H]3OCP(=O)(O)OC2C1O (stereo partly drawn) [Compound 39] | 2.9 | 8 | 0.12 | – | –
Nc1ncnc2c1ncn2[C@@H]1O[C@@H]2OCP(=O)(O)OC3C(O)[C@H](n4cnc5c(N)ncnc54)O[C@@H]3OCP(=O)(O)OC2C1O (stereo partly drawn) [Compound 31, (2R,3R,3aS,7aR,9R,10R,10aS,14aR)-2,9-bis(6-amino-9H-purin-9-yl)-3,5,10,12-tetrahydroxydecahydrodifuro[2,3-e:2′,3′-k][1,4,7,10]tetraoxa[2,8]diphosphacyclododecine 5,12-dioxide] | 0.1 | 2.5 | 19.2 | – | –
Nc1nc2c(ncn2[C@@H]2O[C@@H]3COP(=O)(O)O[C@H]4[C@@H](O)[C@H](n5cnc6c(=O)[nH]c(N)nc65)O[C@@H]4COP(=O)(O)O[C@H]3[C@H]2O)c(=O)[nH]1 [3′3′c-di-GMP, 3′3′-c-di-GMP, reference compound] | – | – | 5.8 | 2.6 | 7.7
Nc1nc2c(ncn2[C@@H]2O[C@@H]3COCP(=O)(O)OC4C(F)[C@H](n5cnc6c(N)ncnc65)O[C@@H]4COP(=O)(O)OC3C2O)c(=O)[nH]1 (stereo partly drawn) [Compound 35, 2-amino-9-((2R,3R,3aS,7aR,9R,10R,10aR,15aR)-9-(6-amino-9H-purin-9-yl)-10-fluoro-3,5,12-trihydroxy-5,12-dioxidodecahydro-2H-difuro[2,3-e:2′,3′-l][1,3,7,10]tetraoxa[2,8]diphosphacyclotridecin-2-yl)-1,9-dihydro-6H-purin-6-one] | 2.3 | 9 | 2.4 | – | –
Nc1ncnc2c1ncn2[C@@H]1O[C@@H]2OCP(=O)(O)OC3C(O)[C@H](n4cnc5c(N)ncnc54)O[C@@H]3COP(=O)(O)OC2C1O (single isomer, unassigned) [Compound 32] | 0.8 | 6.4 | 1.2 | – | –
Nc1nc2c(ncn2[C@@H]2O[C@@H]3OCP(=O)(O)OC4C(O)[C@H](n5cnc6c(=O)[nH]c(N)nc65)O[C@@H]4OCP(=O)(O)OC3C2O)c(=O)[nH]1 (stereo partly drawn) [Compound 36] | 0.6 | 5.6 | 8.1 | – | –

Other lines, results leading:

ΔTm at 150 µM [1] [°C] | ΔTm at 150 µM [2] [°C] | EC50 [3] [µM] | DSF ΔTm WT STING [1] [°C] | DSF ΔTm AQ STING [2] [°C] | Molecule
0 | 1.1 | 20.8 | – | – | CSc1nc(N)nc2c1ncn2[C@@H]1O[C@@H]2COP(=O)(O)OC3C(O)[C@H](n4cnc5c(N)ncnc54)O[C@@H]3OCP(=O)(O)OC2C1O (stereo partly drawn) [Compound 45]
3.9 | 12.2 | 0.06 | – | – | Nc1nc2c(nnn2[C@@H]2O[C@@H]3OCP(=O)(O)OC4C(O)[C@H](n5cnc6c(N)ncnc65)O[C@@H]4COP(=O)(O)OC3C2O)c(=O)[nH]1 (stereo partly drawn) [Compound 54]
0.4 | 2 | 8.6 | – | – | Nc1ncnc2c1ccn2[C@@H]1O[C@@H]2COP(=O)(O)OC3C(O)[C@H](n4cnc5c(N)ncnc54)O[C@@H]3OCP(=O)(O)OC2C1O (stereo partly drawn) [Compound 50]
0.6 | 3.3 | 4.7 | – | – | Nc1nc2c(ccn2[C@@H]2O[C@@H]3COP(=O)(O)OC4C(O)[C@H](n5cnc6c(N)ncnc65)O[C@@H]4OCP(=O)(O)OC3C2O)c(=O)[nH]1 (stereo partly drawn) [Compound 43]
4 | 10.6 | 0.17 | – | – | Nc1ncnc2c1ncn2[C@@H]1O[C@@H]2OCP(=O)(O)OC3C(O)[C@H](n4cnc5c(N)ncnc54)O[C@@H]3COP(=O)(O)OC2C1O (stereo partly drawn) [Compound 51]
0.1 | 2.1 | 20.8 | – | – | Nc1ncnc2c1ncn2[C@@H]1O[C@@H]2COP(=O)(O)OC3C(O)[C@H](n4cnc5c(N)ncnc54)O[C@@H]3OCP(=O)(O)OC2C1N (stereo partly drawn) [Compound 47]
